In article PMC6767236, “Selective Cannabinoid 2 Receptor Agonists as Potential Therapeutic Drugs for the Treatment of Endotoxin-Induced Uveitis” (Molecules, 2019):
Like-named read-outs stand apart in the source and are kept apart here. Marks after values point to notes of the source that are not given here.

Experiments:
[1] = target: CYP3A4 (Homo sapiens, UniProt P08684); assay: Cytochrome P450 inhibition assay, CYP3A4; type: in vitro ADME
[2] = target: CYP2C9 (Homo sapiens, UniProt P11712); assay: Cytochrome P450 inhibition assay, CYP2C9; type: in vitro ADME
CYP2C9, sequence (P11712 whole entry, the tested form may be a part): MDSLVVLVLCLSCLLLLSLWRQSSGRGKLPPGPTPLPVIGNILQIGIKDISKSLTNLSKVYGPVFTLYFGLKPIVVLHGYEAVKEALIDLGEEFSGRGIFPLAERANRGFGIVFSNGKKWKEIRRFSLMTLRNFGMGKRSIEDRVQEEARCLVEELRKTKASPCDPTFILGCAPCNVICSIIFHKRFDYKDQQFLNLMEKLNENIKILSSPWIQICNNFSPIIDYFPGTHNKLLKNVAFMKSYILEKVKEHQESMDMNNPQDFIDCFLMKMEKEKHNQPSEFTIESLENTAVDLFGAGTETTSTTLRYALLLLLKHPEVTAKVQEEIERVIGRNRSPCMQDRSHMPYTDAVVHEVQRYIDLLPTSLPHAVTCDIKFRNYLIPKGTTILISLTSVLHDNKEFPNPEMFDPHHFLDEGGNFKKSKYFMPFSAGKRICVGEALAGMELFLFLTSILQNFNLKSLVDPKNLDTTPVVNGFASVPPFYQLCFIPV

[3] = target: mouse CB2R (Mus musculus, UniProt P47936); assay: biochemical; type: binding; parameters: bgal (beta-galactosidase fragment of the PathHunter system, named only in the cell line's name); host or cells: CHO-K1 (CHOK1mCB2_bgal)
mouse CB2R, sequence (P47936 whole entry, the tested form may be a part): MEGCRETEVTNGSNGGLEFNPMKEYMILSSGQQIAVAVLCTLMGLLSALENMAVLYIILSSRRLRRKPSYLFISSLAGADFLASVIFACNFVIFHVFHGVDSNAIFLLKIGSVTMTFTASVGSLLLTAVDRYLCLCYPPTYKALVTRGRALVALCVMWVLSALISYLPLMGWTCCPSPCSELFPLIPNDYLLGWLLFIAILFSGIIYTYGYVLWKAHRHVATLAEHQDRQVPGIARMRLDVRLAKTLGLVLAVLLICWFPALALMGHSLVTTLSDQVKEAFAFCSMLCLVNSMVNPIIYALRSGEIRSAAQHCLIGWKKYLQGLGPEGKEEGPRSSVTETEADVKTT
Protocol: (§1) Membrane fractions were prepared from cultured CHOK1hCB1_bgal, CHOK1hCB2_bgal, and CHOK1mCB2_bgal cells (DiscoveRx, Fremont, CA, USA) as previously described. Protein concentration was determined using the Pierce bicinchoninic acid (BCA) protein assay (Rochford, IL, USA) as per the manufacturer’s instructions.
Radio ligand-binding assays were carried out as described by Souethoudt et al. (2018). Briefly, membranes from cells expressing human CB2R or CB1R or mouse CB2R and the radioligand, [^3H]-CP55940 (Perkin Elmer, Basel, Switzerland) was used. […] Membrane aliquots containing 5 µg (CHOK1hCB1_bgal) or 1 µg (CHOK1hCB2_bgal) of membrane protein in 100 µL assay buffer (50 mMTris-HCl, 5 mM MgCl2, 0.1% bovine serum albumin (BSA), pH 7.4) were incubated at 30 °C for 1 h, in presence of 3.5 nM of [^3H]-CP55940 (CHOK1hCB1_bgal) or 1.5 nM [^3H]-CP55940 (CHOK1hCB2_bgal). The incubation was terminated by rapid filtration performed on glass microfibre (GF/C) filters (Whatman International, Maidstone, UK), presoaked for 30 min with 0.25% polyethyleneimine (PEI), and using a Brandel harvester (Brandel, Gaithersburg, MD, USA). Filter-bound radioactivity was determined by scintillation spectrometry using a Tri-Carb 2900 TR liquid scintillation counter (Perkin Elmer, Boston, MA, USA). For mouse experiments, spleens were collected as previously described and resuspended in 2 mM Tris-EDTA, 320 mM sucrose, 5 mM MgCl2 (pH 7.4). Tissue was homogenized with a Potter homogenizer and centrifuged three times at 1000× g (10 min). The supernatants were centrifuged at 18,000× g (30 min), and the pellets were resuspended in assay buffer (50 mM Tris-HCl, 2 mM Tris-EDTA, 3 mM MgCl2, pH 7.4). These membrane fractions were used in rapid filtration assays with 400 pM of [^3H]-CP55,940. In all receptor binding experiments, nonspecific binding was determined in the presence of 1 µM “cold” agonist.

[4] = target: T1, human CB1R (Homo sapiens, UniProt P21554)
T1 construct: host or cells: CHO
T1 sequence (P21554 whole entry): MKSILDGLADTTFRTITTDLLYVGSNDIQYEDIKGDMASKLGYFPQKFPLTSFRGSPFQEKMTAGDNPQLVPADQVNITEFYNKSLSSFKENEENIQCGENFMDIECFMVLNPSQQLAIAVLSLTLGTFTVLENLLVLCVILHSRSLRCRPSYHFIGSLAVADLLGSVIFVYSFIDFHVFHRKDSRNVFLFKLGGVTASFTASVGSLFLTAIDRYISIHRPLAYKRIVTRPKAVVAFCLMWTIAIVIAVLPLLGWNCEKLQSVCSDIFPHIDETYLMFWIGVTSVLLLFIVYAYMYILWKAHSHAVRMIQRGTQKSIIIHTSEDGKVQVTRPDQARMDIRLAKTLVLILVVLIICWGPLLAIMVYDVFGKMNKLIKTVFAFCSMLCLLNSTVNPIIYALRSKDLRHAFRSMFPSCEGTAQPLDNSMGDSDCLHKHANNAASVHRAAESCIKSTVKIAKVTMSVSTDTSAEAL

[5] = target: T2, human CB2R (Homo sapiens, UniProt P34972); conditions: cited from earlier work; for Ki: read-out: hCB2R: Ki
T2 construct: bgal (beta-galactosidase fragment of the PathHunter system, named only in the cell line's name); host or cells: CHO-K1 (CHOK1hCB2_bgal)
T2 sequence (P34972 whole entry, the tested form may be a part): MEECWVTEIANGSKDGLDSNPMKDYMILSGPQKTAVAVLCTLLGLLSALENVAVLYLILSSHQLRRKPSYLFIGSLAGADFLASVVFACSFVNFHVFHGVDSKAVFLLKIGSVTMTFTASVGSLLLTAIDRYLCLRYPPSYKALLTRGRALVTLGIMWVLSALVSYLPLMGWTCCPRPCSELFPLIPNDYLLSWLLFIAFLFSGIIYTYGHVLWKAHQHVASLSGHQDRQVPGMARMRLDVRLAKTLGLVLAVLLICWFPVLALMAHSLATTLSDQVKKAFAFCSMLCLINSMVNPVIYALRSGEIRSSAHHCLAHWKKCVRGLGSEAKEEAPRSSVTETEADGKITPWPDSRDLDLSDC

[6] = target: T2, human CB2R; conditions: cited from earlier work; for EC50: read-out: hCB2R: cAMP EC50; for hCB1R cAMP EC50/hCB2R cAMP EC50: functional selectivity
[7] = Protocol: The GSH adduct formation test aims for the identification of molecules which bear the risk of forming reactive metabolites that might trigger drug-induced liver injury and drug-induced hypersensitivity reactions in patients. The compounds are incubated with liver microsomes to assess reactive metabolite formation. Glutathione is added as a nucleophile to convert eventually formed reactive species into a stable conjugate that can be analyzed by mass spectrometry. Details on the assay have been reported in Brink et al. (2014). […]
[8] = cited from earlier work; for Hepatocyte Clearance mouse: mouse hepatocytes, * previously published; for clearance in mouse hepatocytes (class in words): underlying data previously published
[9] = target: CYP2D6 (Homo sapiens, UniProt P10635); assay: Cytochrome P450 inhibition assay, CYP2D6; type: in vitro ADME
CYP2D6, sequence (P10635 whole entry): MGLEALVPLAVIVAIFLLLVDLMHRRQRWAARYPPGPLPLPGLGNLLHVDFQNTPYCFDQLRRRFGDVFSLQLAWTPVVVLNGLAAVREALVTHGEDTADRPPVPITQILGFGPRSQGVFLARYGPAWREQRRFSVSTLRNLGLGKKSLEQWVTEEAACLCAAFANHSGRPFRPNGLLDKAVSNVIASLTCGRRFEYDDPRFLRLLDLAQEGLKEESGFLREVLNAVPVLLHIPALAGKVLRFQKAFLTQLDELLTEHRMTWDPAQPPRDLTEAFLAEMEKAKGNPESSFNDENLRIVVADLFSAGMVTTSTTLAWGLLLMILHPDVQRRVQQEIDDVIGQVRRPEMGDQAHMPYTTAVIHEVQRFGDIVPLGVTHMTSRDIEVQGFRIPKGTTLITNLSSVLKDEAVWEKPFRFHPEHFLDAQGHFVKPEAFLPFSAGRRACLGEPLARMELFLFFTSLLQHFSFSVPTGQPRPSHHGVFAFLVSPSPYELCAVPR

[10] = target: T2, human CB2R; assay: cAMP assay, CHO cells expressing human CB2R; type: cell-based
Protocol: The effect of ligands on the forskolin-stimulated accumulation of cAMP was determined using the LANCE ULTRA cAMP kit as per the manufacturer’s instruction (Perkin-Elmer Life Sciences, Boston, MA, USA).
For human CB2R and CB1R, cAMP assays were performed using CHO cells stably expressing human CB2R or human CB1R (DiscoveRx, Fremont, CA, USA) using a cAMP-Nano-TRF detection kit (Roche Diagnostics, Penzberg, Germany). Cells were seeded 17–24 h prior to the experiment at a density of 3 × 10^4 cells per well in a black 96-well plate with clear flat bottom (Corning, Wiesbaden, Germany) and incubated in 5% CO2 at 37 °C in a humidified incubator. The growth medium was exchanged with Krebs Ringer bicarbonate buffer with 1 mmol/L 3-isobutyl-1-methylxanthine (IBMX), 0.1% fatty acid-free BSA and incubated at 30 °C for 60 min. Agonist was added to a final assay volume of 100 μL and the mixture was incubated for 30 min at 30 °C. The assay was stopped by the addition of 50 μL 3 × lysis reagent and shaken for 2 h at room temperature. The time-resolved fluorescence energy transfer was measured using an LF502 Nanoscan FLT (IOM, Berlin, Germany), equipped with a laser as excitation source. cAMP content was determined from the function of a standard curve spanning from 10 to 0.13 nmol/L cAMP. Efficacies are expressed as percent relative to 1 µM CP55940.

[11] = target: T2, human CB2R; assay: Radioligand binding assay, human CB2R ([3H]-CP55940)
Protocol: as §1
Radio ligand-binding assays were carried out as described by Souethoudt et al. (2018). Briefly, membranes from cells expressing human CB2R or CB1R or mouse CB2R and the radioligand, [^3H]-CP55940 (Perkin Elmer, Basel, Switzerland) was used. […] Membrane aliquots containing 5 µg (CHOK1hCB1_bgal) or 1 µg (CHOK1hCB2_bgal) of membrane protein in 100 µL assay buffer (50 mMTris-HCl, 5 mM MgCl2, 0.1% bovine serum albumin (BSA), pH 7.4) were incubated at 30 °C for 1 h, in presence of 3.5 nM of [^3H]-CP55940 (CHOK1hCB1_bgal) or 1.5 nM [^3H]-CP55940 (CHOK1hCB2_bgal). The incubation was terminated by rapid filtration performed on glass microfibre (GF/C) filters (Whatman International, Maidstone, UK), presoaked for 30 min with 0.25% polyethyleneimine (PEI), and using a Brandel harvester (Brandel, Gaithersburg, MD, USA). Filter-bound radioactivity was determined by scintillation spectrometry using a Tri-Carb 2900 TR liquid scintillation counter (Perkin Elmer, Boston, MA, USA). […] In all receptor binding experiments, nonspecific binding was determined in the presence of 1 µM “cold” agonist.

[12] = species ratio of binding affinity
[13] = [3H]-CP55940 displacement; * previously published; read-out: hCB1R: Ki; cited from earlier work
[14] = [3H]-CP55940 displacement, * previously published
[15] = relative to 1 µM CP55940, * previously published
[16] = underlying data previously published
[17] = [3H]-CP55940 displacement, read-out: mouse CB2R: Ki

CYP3A4, sequence (P08684 whole entry): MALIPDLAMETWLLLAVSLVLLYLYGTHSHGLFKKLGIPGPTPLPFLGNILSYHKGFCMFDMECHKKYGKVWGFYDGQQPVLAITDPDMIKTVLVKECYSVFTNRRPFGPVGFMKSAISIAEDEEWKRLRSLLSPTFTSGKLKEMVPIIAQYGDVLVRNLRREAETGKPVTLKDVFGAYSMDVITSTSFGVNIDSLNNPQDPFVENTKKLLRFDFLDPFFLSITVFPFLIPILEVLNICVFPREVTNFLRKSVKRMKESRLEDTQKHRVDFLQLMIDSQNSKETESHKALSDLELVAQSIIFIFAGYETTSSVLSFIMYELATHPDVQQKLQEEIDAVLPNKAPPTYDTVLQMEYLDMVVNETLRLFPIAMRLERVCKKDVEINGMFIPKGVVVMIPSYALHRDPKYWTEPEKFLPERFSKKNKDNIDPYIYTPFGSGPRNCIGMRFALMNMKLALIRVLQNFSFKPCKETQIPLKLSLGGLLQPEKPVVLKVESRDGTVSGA

Row | Structure (SMILES) | IC50 ([1]; read-out: IC50 CYP3A4) | IC50 ([2]; read-out: IC50 CYP2C9) | hCB2R Ki/mouse CB2R Ki [3, 12] | Ki [4, 13] | Ki [5, 14] | EC50 ([6]; * previously published) | hCB1R cAMP EC50/hCB2R cAMP EC50 ([6]; * previously published) | hCB2R: cAMP efficacy [6, 15] | functional behaviour in hCB2R cAMP assay [6, 16] | GSH Adduct Formation in Human Liver Microsomes [7] | Hepatocyte Clearance mouse [8] | IC50 ([9]; read-out: IC50 CYP2D6) | clearance in mouse hepatocytes (class in words) [8] | Ki [3, 17] | also measured
1 | CNC(=O)[C@@H](NC(=O)c1cc(OCC2(C)COC2)c(C2CC2)cn1)C(C)(C)C [RO6851228, 5-Cyclopropyl-N-[(2S)-3,3-dimethyl-1-(methylamino)-1-oxobutan-2-yl]-4-[(3-methyloxetan-3-yl)methoxy]pyridine-2-carboxamide] | > 50 µM | > 50 µM | 45 | 6.49 µM | 0.045 µM | 0.026 µM | >383 * | −159% | inverse agonist | no adduct | 46 μL/min/Mio cells | > 50 µM |  |  | hCB1R Ki/hCB2R Ki ([5]; binding selectivity, * previously published): 147 *
2 | Cc1nc([C@](C)(CC2CC2)NC(=O)c2cc(OCC(F)(F)F)c(C3CC3)cn2)no1 [RO6871085, 5-Cyclopropyl-N-[(2S)-1-cyclopropyl-2-(5-methyl-1,2,4-oxadiazol-3-yl)propan-2-yl]-4-(2,2,2-trifluoroethoxy)pyridine-2-carboxamide] | 37 µM | 8 µM | 13 | 3.38 µM | 0.076 µM | 0.008 µM | 174 * | 88% | full agonists | no adduct | 27 μL/min/Mio cells | 34 µM | medium |  | 
3 | CCCCCCC(C)(C)c1cc(OC)c([C@H]2C=C(CO)[C@H]3C[C@@H]2C3(C)C)c(OC)c1 [HU308, {(1S,4S,5S)-4-[2,6-Dimethoxy-4-(2-methyloctan-2-yl)phenyl]-6,6-dimethylbicyclo[3.1.1]hept-2-en-2-yl}methanol, reference compound] |  |  |  |  |  |  |  | 98% | full agonists | no adduct | 4.7 μL/min/Mio cells |  |  |  | IC50 [1]: > 50 µM; IC50 [2]: > 50 µM; Ki [3]: 0.223 µM; Ki ([4]; read-out: hCB1R: Ki; [3H]-CP55940 displacement; * previously published; cited from earlier work): 4.6 µM; IC50 [9]: > 50 µM
4 | CC(C)(C)c1nc(N2CC[C@H](O)C2)c2nnn(Cc3nnnn3C3CC3)c2n1 [RO6871304, (3S)-1-{5-tert-butyl-3-[(1-cyclopropyl-1H-tetrazol-5-yl)methyl]-3H-[1,2, 3]triazolo[4,5-d]pyrimidin-7-yl}pyrrolidin-3-ol] | > 50 µM | 16 µM | 0.5 | > 10 µM |  | 0.001 µM |  | 102% | full agonists | no adduct | 140 μL/min/Mio cells | > 50 µM | high | 0.034 µM | hCB1R cAMP EC50/hCB2R cAMP EC50 ([10]; functional selectivity): >10,000; Ki ([11]; [3H]-CP55940 displacement, read-out: hCB2R: Ki): 0.017 µM
5 | CCCCCCC(C)(C)c1cc(OC)c(C2=C[C@H]3CC[C@]2(CO)C3(C)C)c(OC)c1 [HU910, {(1S,4R)-2-[2,6-dimethoxy-4-(2-methyloctan-2-yl)phenyl]-7,7-dimethylbicyclo[2.2.1]hept-2-en-1-yl}methanol, reference compound] | 37 µM | > 50 µM |  | 3.73 µM |  |  |  |  |  | no adduct | 34 μL/min/Mio cells | > 50 µM |  | 0.276 µM | hCB2R Ki/mouse CB2R Ki [3]: 0.2; hCB1R cAMP EC50/hCB2R cAMP EC50 [10]: >2500; Ki [5]: 0.043 µM; functional behaviour in hCB2R cAMP assay [6]: full agonists; hCB2R: cAMP efficacy [6]: 4, 98 * %; EC50 [6]: 0.004 µM; hCB1R Ki/hCB2R Ki [11]: 89
